Like-named read-outs stand apart in the source and are kept apart here.
How the values were obtained:
[1] = system: human immunodeficiency virus-1 (HIV-1); assay: anti-HIV MAGI assay; assay type: cell-based; conditions: anti-HIV
Source text: (§1) We examined the inhibitory activities of DDPs against various species of bacteria (both gram-negative and gram-positive bacteria), fungi and viruses. […] In contrast, preliminary screening of the DDPs for anti-viral agents with hepatitis B virus (HBV), measles virus (MV), Epstein-Barr virus (EBV), herpes simplex virus (HSV) and human immunodeficiency virus-1 (HIV-1) indicated their selective inhibition of HIV.

DL1 cells = assay: cytotoxicity in Drosophila DL1 cells; assay type: cell-based; conditions: DL1 cells; for % viability, viability 1: replicate 1, relative to DMSO 1%; for % viability, viability 2: replicate 2, relative to DMSO 1%; for IC50: cytotoxicity
Experimental: (§2) We screened the DDPs on the Drosophila assay system for cytotoxicity, inhibitory activity of innate immune signalling and insecticidal activity. The cytotoxicity of the DDPs was evaluated using two cell lines, embryonic macrophage-derived DL1 cells[58]–[60] and larval blood cell-derived l(2)mbn cells, and their IC50 values are listed in Supplementary Table 23.

MAGI cells = assay: cytotoxicity in the anti-HIV assay (CC50); assay type: cell-based; conditions: single determinations
Source text: as §1
Policy information about cell lines […]
HeLa-CD4-LTR/ !-galactosidase (MAGI) cells provided by Dr. J. Overbaugh through the NIH AIDS Research and Reference […]
MAGI cells were authenticated by the NIH.
Mycoplasma contamination All the cell lines tested negative for mycoplasma contamination.
Commonly misidentified lines No commonly mis-identified cell lines. […]

MCF-7 cells = assay: cell cytotoxic effects against MCF-7 cells (72 h), A490; assay type: cell-based, human; conditions: MCF-7, 72 h; for viability at 0.1 µM / viability at 1 µM / viability at 10 µM: Homo sapiens, MCF7, 72 h, read-out: A490 (control =1) ave
Experimental: !" ' ' '! !" ' ' '! !" ' ' '!!" ' ' '!!" ' ' '!!" ' ' '!!" ' ' '!!" ' ' '! !" ' ' '! !" ' ' '! !" ' ' '! !"#$
( % ) * '! '' '# '+ '$ '( '%
! " # $ %& %% %' %( %) %! %"
!" ' ' '! !" ' ' '!!" ' ' '!!" ' ' '!!" ' ' '!!" ' ' '!!" ' ' '! !" ' ' '! !" ' ' '! !" ' ' '! !" ' ' '! […]
Supplementary Fig. 46. a, Cell cytotoxic effects of DDPs against MCF-7 cells (72 h).
dose dependent cytotoxic effects against MCF-7 cells were tested their inhibitory activity against mammosphere
formation. Compound in blue (16) was also performed mammosphere assay as negative control. Data represent
mean±s.d. from three independent replicate experiments. […]
Source data underlying Supplementary Figure 46a are provided in a Source Data file. […]

[2] = cytotoxicity in Drosophila DL1 cells; assay type: cell-based; conditions: Drosophila, DL1 cells (embryonic macrophage-derived), DL1 cells
Experimental: as §2

[3] = Human immunodeficiency virus 1, MAGI, average of numeric determinations, read-out: Avg. EC50
[4] = average of two replicates, read-out: IC50 Average
[5] = replicate 1, read-out: IC50 (1)
[6] = replicate 2, read-out: IC50 (2)
[7] = 0.1 µM (DMSO 0.002%), control 1.064
[8] = 1 µM (DMSO 0.02%), control 1.104
[9] = 10 µM (DMSO 0.2%), control 1.049
[10] = replicate 2, relative to DMSO 1%, read-out: % viability, viability 2
[11] = replicate 1, relative to DMSO 1%, read-out: % viability, viability 1
[12] = Drosophila melanogaster, average of two replicates, read-out: IC50 Average
[13] = Drosophila melanogaster, average±SEM, read-out: IC50
[14] = Drosophila melanogaster, replicate 1, read-out: IC50 (1)
[15] = Drosophila melanogaster, replicate 2, read-out: IC50 (2)

| SMILES | Luminescence Raw1 (DL1 cells; 0.04 µM, replicate 1) | Luminescence Raw2 (DL1 cells; 0.04 µM, replicate 2) | Luminescence Raw1 (DL1 cells; 0.2 µM, replicate 1) | Luminescence Raw2 (DL1 cells; 0.2 µM, replicate 2) | Luminescence Raw1 (DL1 cells; 1 µM, replicate 1) | Luminescence Raw2 (DL1 cells; 1 µM, replicate 2) | Luminescence Raw1 (DL1 cells; 4 µM, replicate 1) | Luminescence Raw2 (DL1 cells; 4 µM, replicate 2) | Luminescence Raw1 (DL1 cells; 10 µM, replicate 1) | Luminescence Raw2 (DL1 cells; 10 µM, replicate 2) | Luminescence Raw1 (DL1 cells; 20 µM, replicate 1) | Luminescence Raw2 (DL1 cells; 20 µM, replicate 2) | viability at 0.1 µM (MCF-7 cells; 0.1 µM (DMSO 0.002%)) | viability at 1 µM (MCF-7 cells; 1 µM (DMSO 0.02%)) | viability at 10 µM (MCF-7 cells; 10 µM (DMSO 0.2%)) | A490 ave (MCF-7 cells; [7]) | A490 ave (MCF-7 cells; [8]) | A490 ave (MCF-7 cells; [9]) | viability at 0.04 µM [2, 10] | viability at 0.2 µM [2, 11] | further results |
| --- | --- | --- | --- | --- | --- | --- | --- | --- | --- | --- | --- | --- | --- | --- | --- | --- | --- | --- | --- | --- | --- |
| C=C1CCC2C(C)(CCC=C(C)C)C(O)CCC2(C)C1Cc1c(O)c(C)c(C)oc1=O (stereo not drawn) [Compound 4] | 2757856 | 3026942 | 2720705 | 3168342 | 2448745 | 2704113 | 345570 | 345209 | 299777 | 341603 | 287878 | 302301 |  |  |  |  |  |  |  |  | EC50 [1, 3]: 592 nM; % viability, viability 1 (DL1 cells; 0.04 µM): 201.087%; % viability, viability 2 (DL1 cells; 0.04 µM): 220.707%; % viability, viability 1 (DL1 cells; 0.2 µM): 198.378%; % viability, viability 2 (DL1 cells; 0.2 µM): 231.017%; % viability, viability 1 (DL1 cells; 1 µM): 178.548%; % viability, viability 2 (DL1 cells; 1 µM): 197.168%; % viability, viability 1 (DL1 cells; 4 µM): 25.197%; % viability, viability 2 (DL1 cells; 4 µM): 25.1707%; % viability, viability 1 (DL1 cells; 10 µM): 21.858%; % viability, viability 2 (DL1 cells; 10 µM): 24.9077%; % viability, viability 1 (DL1 cells; 20 µM): 20.9904%; % viability, viability 2 (DL1 cells; 20 µM): 22.0421%; IC50 (DL1 cells; [4]): 1540 nM; IC50 (DL1 cells; average±SEM, read-out: IC50): 1540 ± 80 nM; IC50 (DL1 cells; [5]): 1610 nM; IC50 (DL1 cells; [6]): 1460 nM |
| CC(C)=CCC/C(C)=C/CC/C(C)=C/CC/C(C)=C/Cc1c(O)c(C)c(C)oc1=O [Compound 2] |  |  |  |  |  |  |  |  |  |  |  |  |  |  |  |  |  |  |  |  | Cytotoxicity (MAGI cells): >10 µM; EC50 [1, 3]: 157 nM |
| C=C1CCC2C(C)(CCC=C(C)C)C(O)CCC2(C)C1Cc1c(O)c(C)c(C)oc1=O (stereo not drawn) [Compound 9, higginsianin B] | 3124696 | 2770120 | 2602758 | 2435040 | 371891 | 463117 | 286075 | 310594 | 279225 | 288960 | 263360 | 246413 | 53.1% | 95.5% | 27.3% | 0.565 | 1.055 | 0.286 | 202% | 190% | EC50 ([1]; single determinations, read-out: Efficacy (EC50)): > 10000 nM; % viability, viability 1 (DL1 cells; 0.04 µM): 227.835%; % viability, viability 2 (DL1 cells; 0.2 µM): 177.549%; % viability, viability 1 (DL1 cells; 1 µM): 27.1162%; % viability, viability 2 (DL1 cells; 1 µM): 33.7678%; IC50 (DL1 cells; [4]): 361 nM; IC50 (DL1 cells; average±SEM, read-out: IC50): 360 ± 30 nM; IC50 (DL1 cells; [5]): 328 nM; IC50 (DL1 cells; [6]): 394 nM; viability at 4 µM [2, 11]: 20.9%; viability at 4 µM [2, 10]: 22.6%; viability at 10 µM [2, 11]: 20.4%; viability at 10 µM [2, 10]: 21.1%; viability at 20 µM [2, 11]: 19.2%; viability at 20 µM [2, 10]: 18% |
| C=C1CCC2C(C)(CC(=O)C=C(C)C)C(O)CCC2(C)C1Cc1c(OC)oc(C)c(C)c1=O (stereo not drawn) [Compound 25] | 2772839 | 2800252 | 2673287 | 2657777 | 2635775 | 2736769 | 2684468 | 2551374 | 2257781 | 2619904 | 396244 | 560668 | 78.9% | 103% | 112% | 0.839 | 1.141 | 1.171 | 136% | 130% | IC50 (DL1 cells; [12]): 17200 nM; IC50 (DL1 cells; [13]): 17200 ± 2060 nM; IC50 (DL1 cells; [14]): 15100 nM; IC50 (DL1 cells; [15]): 19200 nM; viability at 0.04 µM [2, 11]: 135%; viability at 0.2 µM [2, 10]: 129%; viability at 1 µM [2, 11]: 128%; viability at 1 µM [2, 10]: 133%; viability at 4 µM [2, 11]: 130%; viability at 4 µM [2, 10]: 124%; viability at 10 µM [2, 11]: 110%; viability at 10 µM [2, 10]: 127%; viability at 20 µM [2, 11]: 19.2%; viability at 20 µM [2, 10]: 27.2% |
| C=C1CC[C@H]2[C@]3(C)C[C@H](C=C(C)C)O[C@H]3CC[C@]2(C)[C@@H]1Cc1c(OC)oc(C)c(C)c1=O [Compound 24] | 2516748 | 2332079 | 850222 | 975712 | 178460 | 208026 | 158268 | 147451 | 159710 | 170888 | 153581 | 168364 | 64% | 76.3% | 12.6% | 0.680 | 0.843 | 0.132 | 113% | 41.3% | EC50 ([1]; Human immunodeficiency virus 1, MAGI, MAGI assay, read-out: EC50): < 200 nM; IC50 (DL1 cells; [12]): 242 nM; IC50 (DL1 cells; [13]): 240 ± 10 nM; IC50 (DL1 cells; [14]): 237 nM; IC50 (DL1 cells; [15]): 248 nM; viability at 0.04 µM [2, 11]: 122%; viability at 0.2 µM [2, 10]: 47.4%; viability at 1 µM [2, 11]: 8.66%; viability at 1 µM [2, 10]: 10.1%; viability at 4 µM [2, 11]: 7.68%; viability at 4 µM [2, 10]: 7.16%; viability at 10 µM [2, 11]: 7.75%; viability at 10 µM [2, 10]: 8.3%; viability at 20 µM [2, 11]: 7.46%; viability at 20 µM [2, 10]: 8.17% |
